Values quoted from earlier work in article PMC12623819 (Scientific Reports, 2025).

How the values were obtained:
[1] = tested on: nectin-4-expressing cells; details: in vitro
[2] = tested on: cell surface-expressed nectin-4

enfortumab vedotin: ADC comprising a human nectin-4 antibody conjugated to the microtubule-disrupting agent MMAE
induction of cell death [1]: induce cell death in a dose-dependent manner
binding to cell surface-expressed nectin-4 [2]: high affinity
